pIC50: −log10 of the molar value.
Columns and labels:
[1] = molecular target: Beta Secretase enzyme (BACE) (Homo sapiens (Human), UniProt P56817); experiment: In vitro enzymatic BACE FRET assay; assay type: biochemical; settings: read-out: BACE1 Enzyme assay IC50
Cathepsin D (Cat D) = Cathepsin D (Cat D) (Homo sapiens (Human), UniProt P07339); experiment: In vitro enzymatic Cathepsin D (Cat D) FRET assay; assay type: biochemical; settings: read-out: CatD IC50
BACE = BACE (Homo sapiens (Human), UniProt P56817); experiment: In vitro BACE cell-based assay (Aβ40 in conditioned medium, sandwich ELISA)
Chain of BACE (P56817 46-501, species assumed): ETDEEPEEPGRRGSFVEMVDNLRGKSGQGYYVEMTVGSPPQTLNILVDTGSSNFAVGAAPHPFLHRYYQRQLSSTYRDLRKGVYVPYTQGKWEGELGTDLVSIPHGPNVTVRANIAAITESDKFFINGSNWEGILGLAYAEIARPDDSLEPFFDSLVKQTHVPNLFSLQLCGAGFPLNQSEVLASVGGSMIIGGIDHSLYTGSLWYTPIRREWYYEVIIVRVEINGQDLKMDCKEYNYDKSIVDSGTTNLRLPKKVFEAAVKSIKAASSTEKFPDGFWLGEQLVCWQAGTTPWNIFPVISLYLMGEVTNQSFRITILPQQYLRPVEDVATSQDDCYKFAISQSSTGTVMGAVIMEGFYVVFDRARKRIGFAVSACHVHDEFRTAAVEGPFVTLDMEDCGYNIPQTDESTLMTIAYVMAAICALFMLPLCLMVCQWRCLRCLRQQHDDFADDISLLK

Chain of Cathepsin D (Cat D) (P07339 65-412, species assumed): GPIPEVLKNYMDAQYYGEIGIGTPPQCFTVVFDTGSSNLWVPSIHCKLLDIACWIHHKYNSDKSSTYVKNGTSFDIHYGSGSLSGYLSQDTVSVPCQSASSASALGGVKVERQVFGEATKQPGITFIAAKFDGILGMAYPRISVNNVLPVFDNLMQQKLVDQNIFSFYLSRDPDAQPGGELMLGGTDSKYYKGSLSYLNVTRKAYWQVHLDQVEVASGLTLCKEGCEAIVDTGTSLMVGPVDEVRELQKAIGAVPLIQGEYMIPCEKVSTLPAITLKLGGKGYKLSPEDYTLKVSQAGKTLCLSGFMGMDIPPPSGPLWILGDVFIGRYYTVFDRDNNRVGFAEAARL
Chain of Beta Secretase enzyme (BACE) (P56817 46-501): as the sequence (P56817 46-501, species assumed) above

| Structure (SMILES) | pIC50 [1] | pIC50 (Cathepsin D (Cat D)) | IC50 (BACE) | pIC50 (BACE) |
| --- | --- | --- | --- | --- |
| N#Cc1cnc(C(=O)Nc2ccc(Cl)c([C@@]3(CF)N=C(N)O[C@@H]4C[C@@H]43)c2)c(F)c1 [Example 450, N-(3-((1R,5S,6R)-3-amino-5-(fluoromethyl)-2-oxa-4-azabicyclo[4.1.0]hept-3-en-5-yl)-4-chlorophenyl)-5-cyano-3-fluoropicolinamide] | 7.30 | < 3.40 | – | 8.09 |
| NC1=N[C@@](c2cc(NC(=O)c3ccccn3)ccc2F)(C(F)F)[C@H]2C[C@H]2O1 [Example 292, N-(3-((1R,5S,6R)-3-amino-5-(difluoromethyl)-2-oxa-4-azabicyclo[4.1.0]hept-3-en-5-yl)-4-fluorophenyl) picolinamide] | 6.52 | 3.16 | 0.279 µM | – |
| COc1cnc(C(=O)Nc2cc(F)c(Cl)c([C@]3(CF)N=C(N)O[C@H]4C[C@H]43)c2)cn1 (racemic) [Example 152, N-(3-([1(S,R),5(R,S),6(S,R)]-3-amino-5-(fluoromethyl)-2-oxa-4-azabicyclo[4.1.0]hept-3-en-5-yl)-4-chloro-5-fluorophenyl)-5-methoxypyrazine-2-carboxamide compound with N-(3-((1S,5R,6S)-3-amino-5-(fluoromethyl)-2-oxa-4-azabicyclo[4.1.0]hept-3-en-5-yl)-4-chloro-5-fluorophenyl)-5-methoxypyrazine-2-carboxamide (1:1)] | 6.89 | 3.39 | 0.0476 µM | – |
| Cn1nc(C(F)F)cc1C(=O)Nc1ccc(F)c([C@@]2(C(F)F)N=C(N)O[C@@H]3C[C@@H]32)c1 [Example 154, N-(3-((1R,5S,6R)-3-amino-5-(difluoromethyl)-2-oxa-4-azabicyclo[4.1.0]hept-3-en-5-yl)-4-fluorophenyl)-3-(difluoromethyl)-1-methyl-1H-pyrazole-5-carboxamide] | 6.62 | 3.29 | 0.109 µM | – |
| NC1=N[C@@](c2cc(N3Cc4cc(Cl)cnc4C3=O)ccc2F)(C(F)F)[C@H]2C[C@H]2O1 [Example 437, 6-(3-((1R,5S,6R)-3-amino-5-(difluoromethyl)-2-oxa-4-azabicyclo[4.1.0]hept-3-en-5-yl)-4-fluorophenyl)-3-chloro-5H-pyrrolo[3,4-b]pyridin-7(6H)-one] | 5.66 | 3.18 | – | 6.42 |
| C=C1CC(CNc2ccc(F)c([C@@]3(C(F)F)N=C(N)O[C@@H]4C[C@@H]43)c2)C1 [Example 375, (1R,5S,6R)-5-(difluoromethyl)-5-(2-fluoro-5-(((3-methylenecyclobutyl)methyl)amino)phenyl)-2-oxa-4-azabicyclo[4.1.0]hept-3-en-3-amine] | 5.22 | 4.10 | 2.53 µM | – |
| NC1=N[C@@](c2cc(NC(=O)c3cnc(Cl)cn3)ccc2F)(C(F)F)[C@H]2C[C@H]2O1 [Example 261, N-(3-((1R,5S,6R)-3-amino-5-(difluoromethyl)-2-oxa-4-azabicyclo[4.1.0]hept-3-en-5-yl)-4-fluorophenyl)-5-chloropyrazine-2-carboxamide] | 7.43 | 3.35 | 1.59 µM | – |
| CC#Cc1cncc(-c2ccc(F)c([C@@]3(C(F)F)N=C(N)O[C@@H]4C[C@@H]43)c2)c1 [Example 429, (1R,5S,6R)-5-(difluoromethyl)-5-(2-fluoro-5-(5-(prop-1-yn-1-yl)pyridin-3-yl)phenyl)-2-oxa-4-azabicyclo[4.1.0]hept-3-en-3-amine] | 5.98 | 4.14 | – | 5.47 |
| Cc1cc(C(F)(F)F)cnc1C(=O)Nc1cc(F)c(F)c([C@@]2(CF)N=C(N)O[C@@H]3C[C@@H]32)c1 (stereo in doubt) [Example 52] | < 4.40 | 2.79 | > 15.6 µM | – |
| NC1=N[C@@](c2cc(NC(=O)[C@H]3CCCO3)ccc2F)(C(F)F)[C@H]2C[C@H]2O1 (mixture of isomers) [Example 244, (S,R)-N-(3-((1R,5S,6R)-3-amino-5-(difluoromethyl)-2-oxa-4-azabicyclo[4.1.0]hept-3-en-5-yl)-4-fluorophenyl) tetrahydrofuran-2-carboxamide] | 5.27 | 3.50 | 1.98 µM | – |
| COc1cc(C#N)cnc1C(=O)Nc1ccc(Cl)c([C@@]2(CF)N=C(N)O[C@@H]3C[C@@H]32)c1 [Example 397, N-(3-((1R,5S,6R)-3-amino-5-(fluoromethyl)-2-oxa-4-azabicyclo[4.1.0]hept-3-en-5-yl)-4-chlorophenyl)-5-cyano-3-methoxypicolinamide] | 7.09 | < 3.40 | 0.009 µM | – |
| NC1=N[C@](CF)(c2cc(NC(=O)c3ncc(Cl)cc3CF)ccc2Cl)[C@H]2C[C@H]2O1 [Example 441, N-(3-((1R,5S,6R)-3-amino-5-(fluoromethyl)-2-oxa-4-azabicyclo[4.1.0]hept-3-en-5-yl)-4-chlorophenyl)-5-chloro-3-(fluoromethyl) picolinamide] | 7.60 | 3.35 | – | 7.80 |
| NC1=N[C@@](c2cc(NC(=O)c3ccc(OCF)cn3)ccc2F)(C(F)F)[C@H]2C[C@H]2O1 [Example 180, N-(3-((1R,5S,6R)-3-amino-5-(difluoromethyl)-2-oxa-4-azabicyclo[4.1.0]hept-3-en-5-yl)-4-fluorophenyl)-5-(fluoromethoxy) picolinamide] | 7.04 | < 5.78 | 0.0449 µM | – |
| C#CCOc1cnc(C(=O)Nc2ccc(F)c([C@@]3(CF)N=C(N)O[C@@H]4C[C@@H]43)c2)cn1 [Example 197, N-(3-((1R,5S,6R)-3-amino-5-(fluoromethyl)-2-oxa-4-azabicyclo[4.1.0]hept-3-en-5-yl)-4-fluorophenyl)-5-(prop-2-yn-1-yloxy)pyrazine-2-carboxamide] | 8.18 | 3.58 | 0.0023 µM | – |

Now from value to compound:

| pIC50 [1] | pIC50 (Cathepsin D (Cat D)) | IC50 (BACE) | pIC50 (BACE) | Structure (SMILES) |
| --- | --- | --- | --- | --- |
| 4.46 | 3.73 | > 15.6 µM | – | NC1=N[C@@](c2cc(NC(=O)[C@@H]3CCOC3)ccc2F)(C(F)F)[C@H]2C[C@H]2O1 (mixture of isomers) [Example 253, (R,S)-N-(3-((1R,5S,6R)-3-amino-5-(difluoromethyl)-2-oxa-4-azabicyclo[4.1.0]hept-3-en-5-yl)-4-fluorophenyl) tetrahydrofuran-3-carboxamide] |
| 7.75 | 3.73 | 0.0321 µM | – | NC1=N[C@@](c2cc(NC(=O)c3ncc(Cl)cc3CF)ccc2F)(C(F)F)[C@H]2C[C@H]2O1 [Example 308, N-(3-((1R,5S,6R)-3-amino-5-(difluoromethyl)-2-oxa-4-azabicyclo[4.1.0]hept-3-en-5-yl)-4-fluorophenyl)-5-chloro-3-(fluoromethyl) picolinamide] |
| 7.15 | 3.55 | 0.0543 µM | – | NC1=N[C@](CF)(c2cc(Nc3nccc4cc(Cl)cnc34)ccc2F)[C@H]2C[C@H]2O1 [Example 345, (1R,5S,6R)-5-(5-((3-chloro-1,7-naphthyridin-8-yl)amino)-2-fluorophenyl)-5-(fluoromethyl)-2-oxa-4-azabicyclo[4.1.0]hept-3-en-3-amine] |
| 5.19 | 3.29 | 1.91 µM | – | NC1=NC(CF)(c2cc(NC(=O)c3ccc(Br)cn3)cc(F)c2F)[C@@H]2C[C@@H]2O1 (stereo in doubt) [Example 40, N-(3-((1S,5S,6S)-3-amino-5-(fluoromethyl)-2-oxa-4-azabicyclo[4.1.0]hept-3-en-5-yl)-4,5-difluorophenyl)-5-bromopicolinamide] |
| 5.46 | 3.18 | 1.41 µM | – | COc1ccc(C(=O)Nc2ccc(F)c([C@@]3(C(F)F)N=C(N)O[C@@H]4C[C@@H]43)c2)nn1 [Example 187, N-(3-((1R,5S,6R)-3-amino-5-(difluoromethyl)-2-oxa-4-azabicyclo[4.1.0]hept-3-en-5-yl)-4-fluorophenyl)-6-methoxypyridazine-3-carboxamide] |
| 6.89 | 3.19 | – | 6.01 | NC1=N[C@@](c2cc(NC(=O)c3cnc(OCC4CCOCC4)cn3)ccc2F)(C(F)F)[C@H]2C[C@H]2O1 [Example 412, N-(3-((1R,5S,6R)-3-amino-5-(difluoromethyl)-2-oxa-4-azabicyclo[4.1.0]hept-3-en-5-yl)-4-fluorophenyl)-5-((tetrahydro-2H-pyran-4-yl)methoxy)pyrazine-2-carboxamide] |
| 7.33 | 3.46 | – | 5.80 | NC1=N[C@@](c2cc(Nc3ncc(F)c4cc(C#CC5CC5)cnc34)ccc2F)(C(F)F)[C@H]2C[C@H]2O1 [Example 408, (1R,5S,6R)-5-(5-((3-(cyclopropylethynyl)-5-fluoro-1,7-naphthyridin-8-yl)amino)-2-fluorophenyl)-5-(difluoromethyl)-2-oxa-4-azabicyclo[4.1.0]hept-3-en-3-amine] |
| < 4.40 | < 3.40 | > 15.6 µM | – | NC1=N[C@@](c2cc(NC(=O)CC3CCCCC3)ccc2F)(C(F)F)[C@H]2C[C@H]2O1 [Example 241, N-(3-((1R,5S,6R)-3-amino-5-(difluoromethyl)-2-oxa-4-azabicyclo[4.1.0]hept-3-en-5-yl)-4-fluorophenyl)-2-cyclohexylacetamide] |
| 5.44 | 2.95 | 0.906 µM | – | NC1=N[C@@](CF)(c2cc(NC(=O)c3ccc(Br)cn3)ccc2Cl)[C@@H]2C[C@@H]2O1 [Example 275, N-(3-((1S,5R,6S)-3-amino-5-(fluoromethyl)-2-oxa-4-azabicyclo[4.1.0]hept-3-en-5-yl)-4-chlorophenyl)-5-bromopicolinamide] |
| 6.97 | 3.12 | 0.148 µM | – | Cc1cnc(C(=O)Nc2ccc(F)c([C@@]3(C(F)F)N=C(N)O[C@@H]4C[C@@H]43)c2)c(C)c1 [Example 185, N-(3-((1R,5S,6R)-3-amino-5-(difluoromethyl)-2-oxa-4-azabicyclo[4.1.0]hept-3-en-5-yl)-4-fluorophenyl)-3,5-dimethylpicolinamide] |
